US12458628B2, “Cancer therapeutic” (J-Pharma Co., Ltd., priority 2017, dated 2025)
Values joined by “and” are separate entries in the source; they are usually repeats but may differ in a detail not shown here. Equal entries are not always repeated.

Test system: patients with solid cancer
Assay: Phase 1 clinical trial of JPH203 in patients with solid cancer (safety/DLT and efficacy)
Format: in vivo, human
Conditions: for Effective case: single dose then once daily for 7 consecutive days per cycle; for DLT (dose limiting toxicity): between single administration and test at end of cycle 1
Description: The injection is a lyophilized formulation and contains 50 mg of JPH203 and 1200 mg of sulfobutyl ether-β-cyclodextrin in one vial.
Phase 1 Clinical Trial of JPH203 in Patients with Solid Cancer
This clinical trial involved patients with solid cancer. The object of this clinical trial was to evaluate the safety (dose limiting toxicity: DLT) and efficacy of JPH203.
The patient's primary inclusion criteria and exclusion criteria are as follows:
• Patients in advanced stage, who have been confirmed to have solid cancer and who are refractory or intolerant to standard therapy • Patients whose biopsies or pre-existing tissues are available for LAT1 antibody staining • Patients who can be expected to survive 90 days or more from the date of enrollment Exclusion Criteria • Patients with serious or clinically problematic anamnesis or complications • Patients who received chemotherapy, radiation therapy, immunotherapy, or other therapies aimed at tumor shrinkage effect within 4 weeks prior to study drug administration
The dosing schedule is as follows:
On Day 1, a predetermined dosage was administered in a single dose. The dosage was 12 mg/m^2 (4 cases), 25 mg/m^2 (3 cases), 40 mg/m^2 (3 cases), 60 mg/m^2 (6 cases), or 85 mg/m^2 (1 case). One case of the 12 mg/m^2 dosage group was discontinued after only a single dose due to disease progression.
Cycle 1 was started 8 days or more after the single administration, and the injection was administered once daily for 7 consecutive days. Tests including CT were performed on days 28 to 31 from the start date of cycle 1 administration.
Within 28 days of the test day of the previous cycle, the next cycle was started and the injection was administered once daily for 7 consecutive days. Tests were performed on days 28 to 31 from the start date of administration.
DLT was the following symptoms occurring between the single administration and the test at the end of cycle 1 (from the start of cycle 1 to day 28) and for which the investigator (subinvestigator) determined that the relationship with the study drug could not be denied (“related,” “probably related,” “possibly related,” or “unlikely related”). However, the final determination of DLT was made in consultation between the investigator and the sponsor. If necessary, advice from the Data and Safety Monitoring Board was sought upon determining DLT. • 1) Non-hematologic toxicity of grade 3 or more for which the investigator (subinvestigator) determines that it is difficult to continue the administration of the study drug (except for acneform rash, maculo-papular rash, or urticaria of grade 3, and nausea, vomiting, inappetence, diarrhea, constipation, or fatigue that recovers to grade 1 by symptomatic therapy within 7 days after the occurrence) • 2) Hematotoxicity of grade 4 or more or thrombocytopenia of grade 3 or more requiring blood transfusion • 3) Febrile neutropenia
It should be noted that PD (progression) is when the sum of diameters of the target lesion is increased by 20% or more and the absolute value of sum diameters is increased by 5 mm or more compared to the smallest sum diameters measured at or after the baseline.

Nc1cc(COc2c(Cl)cc(C[C@H](N)C(=O)O)cc2Cl)c2oc(-c3ccccc3)nc2c1 [JPH203, O-(5-amino-2-phenylbenzoxazol-7-yl)methyl-3,5-dichloro-L-tyrosine]
cases of no change in tumor size (stable: SD) (12 mg/m^2 dosage group): 1 case
cases of tumor size reduction of 30% or more (partial response: PR) (12 mg/m^2 dosage group): One
cases of no change in tumor size (stable: SD) (25 mg/m^2 dosage group): 1 case
cases of no change in tumor size (stable: SD) (40 mg/m^2 dosage group): 1 case
AST/ALT increase of grade 3 (DLT) (60 mg/m^2 dosage group): observed
cases of no change in tumor size (stable: SD) (60 mg/m^2 dosage group): 1 case
AST/ALT increase of grade 3 (DLT) (85 mg/m^2 dosage group): observed
Effective case (dosage 12 mg/m^2, injection): 2/3
DLT (dose limiting toxicity) (dosage 12 mg/m^2): No
Effective case (dosage 25 mg/m^2, injection): 1/3
DLT (dose limiting toxicity) (dosage 25 mg/m^2): No
Effective case (dosage 40 mg/m^2, injection): 1/3
DLT (dose limiting toxicity) (dosage 40 mg/m^2): No
Effective case (dosage 60 mg/m^2, injection): 1/6
DLT (dose limiting toxicity) (dosage 60 mg/m^2): Yes
Effective case (dosage 85 mg/m^2, injection): 0/1
DLT (dose limiting toxicity) (dosage 85 mg/m^2): Yes
cases with significant shrinkage effect in lymph node metastatic lesions (lymph node metastatic lesions, all dosage groups): 3 out of 7
survival prolonging effects by cancer type (Swimmer plot, FIG. 2) (months of survival for each subject): exhibits survival prolonging effects on bile duct cancer, colorectal cancer, and pancreatic cancer
shrinkage of lymph node metastatic lesions (individual cases) (the 3 responding cases out of 7): 55% and 69.4% and 80%
tumor shrinkage effects by cancer type (Waterfall plot, FIG. 1) (tumor shrinkage ratio for each subject): exhibits tumor shrinkage effects on bile duct cancer, colorectal cancer, esophageal cancer, and breast cancer
